Data published in the supplement of paper PMC13207355.

Columns and labels:
Conditions in all cases: exposure time: 72 h
[1] = tested on: E31 (patient-derived glioblastoma stem cells of proneural subtype); experiment: surviving fraction (nuclei count normalised to DMSO); higher = more cells surviving (less toxic)
[2] = tested on: E28 (patient-derived glioblastoma stem cells of classical subtype); experiment: as above
[3] = tested on: E21 (patient-derived glioblastoma stem cells of mesenchymal subtype); experiment: as above
[4] = tested on: E13 (patient-derived glioblastoma stem cells of classical subtype); experiment: as above
[5] = tested on: FT3469 (normal neural stem cell line); experiment: as above
[6] = tested on: E34 (patient-derived glioblastoma stem cells of proneural subtype); experiment: as above
[7] = tested on: E57 (patient-derived glioblastoma stem cells of mesenchymal subtype); experiment: as above
[8] = tested on: E31; experiment: phenotypic distance (Euclidean, principal components) from DMSO controls (arbitrary units); higher = stronger morphological change
[9] = tested on: E28; experiment: as above
[10] = tested on: E21; experiment: as above
[11] = tested on: E13; experiment: as above
[12] = tested on: FT3469; experiment: as above
[13] = tested on: E34; experiment: as above
[14] = tested on: E57; experiment: as above
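Wherever phenotypic distance (Euclidean, principal components) from DMSO controls is given: cell Painting imaging in 384-well plates, CellProfiler features reduced to at least 20 principal components, Euclidean distance versus same-plate DMSO vehicle wells (0.1% v/v), median over six images per well.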
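Wherever surviving fraction (nuclei count normalised to DMSO) is given: nuclei counted by high-content imaging of Hoechst-stained cells in laminin-coated 384-well plates, relative to 0.1% DMSO vehicle wells, with staurosporine as cell-death control.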

Cn1ncnc1[C@H]1c2n[nH]c(=O)c3cc(F)cc(c23)N[C@@H]1c1ccc(F)cc1 [Talazoparib]
surviving fraction ([1]; 4.1 nM): 0.59
surviving fraction ([1]; 12.3 nM): 0.663
surviving fraction ([1]; 37 nM): 0.623
surviving fraction ([1]; 111.1 nM): 0.534
surviving fraction ([1]; 333.3 nM): 0.342
surviving fraction ([1]; 1000 nM): 0.265
surviving fraction ([1]; 3000 nM): 0.207
surviving fraction ([2]; 4.1 nM): 0.503
surviving fraction ([2]; 12.3 nM): 0.47
surviving fraction ([2]; 37 nM): 0.44
surviving fraction ([2]; 111.1 nM): 0.418
surviving fraction ([2]; 333.3 nM): 0.388
surviving fraction ([2]; 1000 nM): 0.395
surviving fraction ([2]; 3000 nM): 0.3
surviving fraction ([3]; 4.1 nM): 0.755
surviving fraction ([3]; 12.3 nM): 0.777
surviving fraction ([3]; 37 nM): 0.709
surviving fraction ([3]; 111.1 nM): 0.629
surviving fraction ([3]; 333.3 nM): 0.565
surviving fraction ([3]; 1000 nM): 0.403
surviving fraction ([3]; 3000 nM): 0.292
surviving fraction ([4]; 4.1 nM): 0.705
surviving fraction ([4]; 12.3 nM): 0.673
surviving fraction ([4]; 37 nM): 0.629
surviving fraction ([4]; 111.1 nM): 0.593
surviving fraction ([4]; 333.3 nM): 0.548
surviving fraction ([4]; 1000 nM): 0.461
surviving fraction ([4]; 3000 nM): 0.51
surviving fraction ([5]; 4.1 nM): 0.637
surviving fraction ([5]; 12.3 nM): 0.778
surviving fraction ([5]; 37 nM): 0.657
surviving fraction ([5]; 111.1 nM): 0.727
surviving fraction ([5]; 333.3 nM): 0.648
surviving fraction ([5]; 1000 nM): 0.636
surviving fraction ([5]; 3000 nM): 0.569
surviving fraction ([6]; 4.1 nM): 0.623
surviving fraction ([6]; 12.3 nM): 0.671
surviving fraction ([6]; 37 nM): 0.556
surviving fraction ([6]; 111.1 nM): 0.594
surviving fraction ([6]; 333.3 nM): 0.561
surviving fraction ([6]; 1000 nM): 0.503
surviving fraction ([6]; 3000 nM): 0.48
surviving fraction ([7]; 4.1 nM): 0.807
surviving fraction ([7]; 12.3 nM): 0.735
surviving fraction ([7]; 37 nM): 0.797
surviving fraction ([7]; 111.1 nM): 0.676
surviving fraction ([7]; 333.3 nM): 0.605
surviving fraction ([7]; 1000 nM): 0.313
surviving fraction ([7]; 3000 nM): 0.25
phenotypic distance ([8]; 4.1 nM): 1.5
phenotypic distance ([8]; 12.3 nM): 1.58
phenotypic distance ([8]; 37 nM): 1.6
phenotypic distance ([8]; 111.1 nM): 2.21
phenotypic distance ([8]; 333.3 nM): 2.86
phenotypic distance ([8]; 1000 nM): 2.1
phenotypic distance ([8]; 3000 nM): 2.79
phenotypic distance ([9]; 4.1 nM): 3.02
phenotypic distance ([9]; 12.3 nM): 2.65
phenotypic distance ([9]; 37 nM): 3.31
phenotypic distance ([9]; 111.1 nM): 3.57
phenotypic distance ([9]; 333.3 nM): 3.51
phenotypic distance ([9]; 1000 nM): 3.37
phenotypic distance ([9]; 3000 nM): 4.36
phenotypic distance ([10]; 4.1 nM): 4.97
phenotypic distance ([10]; 12.3 nM): 1.69
phenotypic distance ([10]; 37 nM): 2.19
phenotypic distance ([10]; 111.1 nM): 2.75
phenotypic distance ([10]; 333.3 nM): 3.08
phenotypic distance ([10]; 1000 nM): 4.5
phenotypic distance ([10]; 3000 nM): 5.21
phenotypic distance ([11]; 4.1 nM): 1.44
phenotypic distance ([11]; 12.3 nM): 1.97
phenotypic distance ([11]; 37 nM): 2.08
phenotypic distance ([11]; 111.1 nM): 2.45
phenotypic distance ([11]; 333.3 nM): 3.55
phenotypic distance ([11]; 1000 nM): 4.7
phenotypic distance ([11]; 3000 nM): 4.3
phenotypic distance ([12]; 4.1 nM): 2.18
phenotypic distance ([12]; 12.3 nM): 1.53
phenotypic distance ([12]; 37 nM): 1.5
phenotypic distance ([12]; 111.1 nM): 1.69
phenotypic distance ([12]; 333.3 nM): 1.74
phenotypic distance ([12]; 1000 nM): 1.99
phenotypic distance ([12]; 3000 nM): 2.44
phenotypic distance ([13]; 4.1 nM): 3.39
phenotypic distance ([13]; 12.3 nM): 3.64
phenotypic distance ([13]; 37 nM): 3.15
phenotypic distance ([13]; 111.1 nM): 3.62
phenotypic distance ([13]; 333.3 nM): 3.3
phenotypic distance ([13]; 1000 nM): 2.98
phenotypic distance ([13]; 3000 nM): 3.55
phenotypic distance ([14]; 4.1 nM): 1.57
phenotypic distance ([14]; 12.3 nM): 1.96
phenotypic distance ([14]; 37 nM): 1.65
phenotypic distance ([14]; 111.1 nM): 2.9
phenotypic distance ([14]; 333.3 nM): 3.02
phenotypic distance ([14]; 1000 nM): 6.02
phenotypic distance ([14]; 3000 nM): 6.4
